BigSolDB 2.1

C=C[C@]1(C)C[C@@H](OC(=O)CSC(C)(C)CNC(=O)[C@H](N)C(C)C)[C@]2(C)[C@H](C)CC[C@]3(CCC(=O)[C@H]32)[C@@H](C)[C@@H]1O.Cl
solubility (mole fraction)
Details | 278.15 K | 283.15 K | 288.15 K | 293.15 K | 298.15 K | 303.15 K | 308.15 K | 313.15 K
in ethanol | 0.0309 | 0.038 | 0.0432 | 0.0506 | 0.0601 | 0.0713 | 0.0837 | 0.101
in water | 0.00162 | 0.00321 | 0.00545 | 0.00853 | 0.0135 | 0.0214 | 0.0344 | 0.0486
